Experiments:
[1] = biological target: T1, Neuropeptide Y receptor type 4 (Homo sapiens, UniProt P50391); test: Binding affinity to human Y4R expressed in CHO cells co-expressing Gqi5-mtAEQ under sodium free buffer condition; assay type: cell-based
[2] = biological target: T1, Neuropeptide Y receptor type 4; test: Binding affinity to human Y4R expressed in CHO cells co-expressing Gqi5-mtAEQ under DPBS condition; assay type: cell-based
[3] = biological target: T1, Neuropeptide Y receptor type 4; test: Binding affinity to human Y4R expressed in CHO cells co-expressing Gqi5-mtAEQ assessed as dissociation constant under sodium free buffer condition; assay type: cell-based
[4] = biological target: T1, Neuropeptide Y receptor type 4; test: Binding affinity to human Y4R expressed in CHO cells co-expressing Gqi5-mtAEQ assessed as dissociation constant preincubated for 20 mins under DPBS condition; assay type: cell-based
[5] = biological target: T1, Neuropeptide Y receptor type 4; test: Binding affinity to human Y4R expressed in CHO cells co-expressing Gqi5-mtAEQ assessed as dissociation constant preincubated for 2 hrs under DPBS condition; assay type: cell-based
[6] = biological target: T1, Neuropeptide Y receptor type 4; test: Binding affinity to human Y4R under 137 mM sodium condition
[7] = biological target: T1, Neuropeptide Y receptor type 4; test: Binding affinity to human Y4R expressed in CHO cells co-expressing Gqi5-mtAEQ at 4 degreeC; assay type: cell-based
[8] = biological target: T1, Neuropeptide Y receptor type 4; test: Binding affinity to human Y4R under sodium free condition
[9] = biological target: T1, Neuropeptide Y receptor type 4; test: Binding affinity to human Y4R under 140 mM sodium condition
[10] = biological target: T1, Neuropeptide Y receptor type 4; test: (§1) Displacement of [3H]-(9S,12S,15S,19R,E)-4-amino-N-((S)-1-(((S)-1-(((S)-1-amino-3-(4-hydroxyphenyl)-1-oxopropan-2-yl)amino)-5-guanidino-1-oxopentan-2-yl)amino)-4-methyl-1-oxopentan-2-yl)-15-(3-guanidinopropyl)-12-(4-hydroxybenzyl)-2,11,14,17,20-pentaoxo-19-(4-(propanamido-2,3-t2)butanamido)-1,3,5,10,13,16,21-heptaazacyclopentacos-3-ene-9-carboxamide from human Y4R expressed in CHO cells coexpressing Gqi5-mtAEQ under hypotonic sodium free buffer condition; assay type: cell-based
[11] = biological target: T1, Neuropeptide Y receptor type 4; test: as §1, with “isotonic” for “hypotonic”, “containing” for “free”; assay type: cell-based
[12] = biological target: T1, Neuropeptide Y receptor type 4; test: Binding affinity to human Y4R under hypotonic sodium free condition
[13] = Chemical stability in PBS buffer at pH 7.4 after 48 hrs by RP-HPLC analysis; assay type: physicochemical; details: pH 7.4, 48 h
[14] = biological target: T2, Neuropeptide Y receptor type 1 (Homo sapiens, UniProt P25929); test: Displacement of [3H]UR-MK299 from human Y1R expressed in SK-N-MC cells; assay type: cell-based
T2 sequence (P25929 whole entry): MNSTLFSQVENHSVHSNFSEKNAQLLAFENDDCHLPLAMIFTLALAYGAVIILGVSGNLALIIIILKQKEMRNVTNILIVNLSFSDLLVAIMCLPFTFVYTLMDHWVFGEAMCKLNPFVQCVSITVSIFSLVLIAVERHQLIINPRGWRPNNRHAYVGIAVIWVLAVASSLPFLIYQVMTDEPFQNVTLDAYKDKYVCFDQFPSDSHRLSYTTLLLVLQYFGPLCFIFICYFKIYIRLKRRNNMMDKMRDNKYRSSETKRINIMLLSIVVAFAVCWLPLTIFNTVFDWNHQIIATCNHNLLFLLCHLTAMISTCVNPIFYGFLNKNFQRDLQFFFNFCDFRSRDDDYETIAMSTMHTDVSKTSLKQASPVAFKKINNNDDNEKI

[15] = biological target: T3, Neuropeptide Y receptor type 2 (Homo sapiens, UniProt P49146); test: Displacement of [3H]propionyl-pNPY from human Y2R expressed in CHO cells; assay type: cell-based
T3 sequence (P49146 whole entry): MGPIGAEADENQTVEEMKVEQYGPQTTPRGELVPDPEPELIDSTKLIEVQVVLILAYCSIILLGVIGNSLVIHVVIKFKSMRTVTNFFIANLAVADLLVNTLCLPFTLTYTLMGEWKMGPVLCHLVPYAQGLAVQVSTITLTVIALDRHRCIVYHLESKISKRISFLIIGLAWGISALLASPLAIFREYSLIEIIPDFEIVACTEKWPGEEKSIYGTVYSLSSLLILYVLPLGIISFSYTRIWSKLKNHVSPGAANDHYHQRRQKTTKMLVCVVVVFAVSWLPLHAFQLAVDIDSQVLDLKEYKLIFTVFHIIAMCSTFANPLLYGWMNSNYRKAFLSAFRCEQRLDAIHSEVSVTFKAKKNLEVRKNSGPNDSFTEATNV

[16] = biological target: T1, Neuropeptide Y receptor type 4; test: Displacement of [3H]UR-KK200 from human Y4R expressed in CHO cells co-expressing Gqi5-mtAEQ; assay type: cell-based
[17] = biological target: T4, Neuropeptide Y receptor type 5 (Homo sapiens, UniProt Q15761); test: Displacement of [3H]propionyl-pNPY from human Y5R expressed in HEC-1B cells; assay type: cell-based, HEC-1B cell line
T4 sequence (Q15761 whole entry): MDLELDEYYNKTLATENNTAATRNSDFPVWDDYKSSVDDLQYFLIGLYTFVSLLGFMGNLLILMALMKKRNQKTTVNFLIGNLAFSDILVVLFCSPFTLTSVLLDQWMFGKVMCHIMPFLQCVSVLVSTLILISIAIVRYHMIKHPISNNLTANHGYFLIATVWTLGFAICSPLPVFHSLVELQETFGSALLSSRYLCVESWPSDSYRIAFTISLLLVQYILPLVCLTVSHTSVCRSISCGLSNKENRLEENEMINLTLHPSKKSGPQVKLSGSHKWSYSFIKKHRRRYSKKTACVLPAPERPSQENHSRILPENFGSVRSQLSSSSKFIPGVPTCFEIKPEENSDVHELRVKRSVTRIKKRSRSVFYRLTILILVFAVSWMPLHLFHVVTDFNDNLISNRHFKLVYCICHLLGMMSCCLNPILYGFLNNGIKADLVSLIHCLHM

Homo sapiens [18] = organism: Homo sapiens; test: Selectivity ratio of pKi for human Y1R to pKi for human Y4R
Homo sapiens [19] = organism: Homo sapiens; test: Selectivity ratio of pKi for human Y2R to pKi for human Y4R
Homo sapiens [20] = organism: Homo sapiens; test: Selectivity ratio of pKi for human Y5R to pKi for human Y4R
[21] = biological target: T1, Neuropeptide Y receptor type 4; test: Agonist activity at human Y4R expressed in CHO cells co-expressing Gqi5-mtAEQ by calcium2+ aequorin assay; assay type: functional, cell-based
[22] = biological target: T1, Neuropeptide Y receptor type 4; test: Agonist activity at human Y4R expressed in HEK293T cells by miniGsi assay; assay type: functional, cell-based
[23] = biological target: T1, Neuropeptide Y receptor type 4; test: Agonist activity at human Y4R expressed in HEK293T cells incubated for 60 mins by cAMP CAMYEN assay; assay type: functional, cell-based
[24] = biological target: T1, Neuropeptide Y receptor type 4; test: Agonist activity at human Y4R expressed in CHO cells co-expressing Gqi5-mtAEQ by calcium2+ aequorin assay relative to control; assay type: functional, cell-based; details: filed as agonist
[25] = biological target: T1, Neuropeptide Y receptor type 4; test: Agonist activity at human Y4R expressed in HEK293T cells by miniGsi assay relative to control; assay type: functional, cell-based; details: filed as agonist
[26] = biological target: T1, Neuropeptide Y receptor type 4; test: Agonist activity at human Y4R expressed in HEK293T cells incubated for 60 mins by cAMP CAMYEN assay relative to control; assay type: functional, cell-based; details: filed as agonist
[27] = biological target: T1, Neuropeptide Y receptor type 4; test: Binding affinity to human Y4R expressed in CHO cells co-expressing Gqi5-mtAEQ assessed as observed association rate constant under sodium free buffer condition; assay type: cell-based; details: filed as agonist, tested as the 3H-labelled form
[28] = biological target: T1, Neuropeptide Y receptor type 4; test: Binding affinity to human Y4R expressed in CHO cells co-expressing Gqi5-mtAEQ assessed as Koff under sodium free buffer condition; assay type: cell-based; details: filed as agonist, tested as the 3H-labelled form
[29] = biological target: T1, Neuropeptide Y receptor type 4; test: Binding affinity to human Y4R expressed in CHO cells co-expressing Gqi5-mtAEQ assessed as Kon under sodium free buffer condition; assay type: cell-based; details: filed as agonist, tested as the 3H-labelled form
[30] = biological target: T1, Neuropeptide Y receptor type 4; test: Binding affinity to human Y4R expressed in CHO cells co-expressing Gqi5-mtAEQ assessed as observed association rate constant preincubated for 20 mins under DPBS condition; assay type: cell-based; details: filed as agonist, tested as the 3H-labelled form
[31] = biological target: T1, Neuropeptide Y receptor type 4; test: Binding affinity to human Y4R expressed in CHO cells co-expressing Gqi5-mtAEQ assessed as Koff preincubated for 20 mins under DPBS condition; assay type: cell-based; details: filed as agonist, tested as the 3H-labelled form
[32] = biological target: T1, Neuropeptide Y receptor type 4; test: Binding affinity to human Y4R expressed in CHO cells co-expressing Gqi5-mtAEQ assessed as Kon preincubated for 20 mins under DPBS condition; assay type: cell-based; details: filed as agonist, tested as the 3H-labelled form
[33] = biological target: T1, Neuropeptide Y receptor type 4; test: Binding affinity to human Y4R expressed in CHO cells co-expressing Gqi5-mtAEQ assessed as Koff preincubated for 2 hrs under DPBS condition; assay type: cell-based; details: filed as agonist, tested as the 3H-labelled form
[34] = biological target: T1, Neuropeptide Y receptor type 4; test: Binding affinity to human Y4R expressed in CHO cells co-expressing Gqi5-mtAEQ assessed as Kon preincubated for 2 hrs under DPBS condition; assay type: cell-based; details: filed as agonist, tested as the 3H-labelled form

T1 sequence (P50391 whole entry): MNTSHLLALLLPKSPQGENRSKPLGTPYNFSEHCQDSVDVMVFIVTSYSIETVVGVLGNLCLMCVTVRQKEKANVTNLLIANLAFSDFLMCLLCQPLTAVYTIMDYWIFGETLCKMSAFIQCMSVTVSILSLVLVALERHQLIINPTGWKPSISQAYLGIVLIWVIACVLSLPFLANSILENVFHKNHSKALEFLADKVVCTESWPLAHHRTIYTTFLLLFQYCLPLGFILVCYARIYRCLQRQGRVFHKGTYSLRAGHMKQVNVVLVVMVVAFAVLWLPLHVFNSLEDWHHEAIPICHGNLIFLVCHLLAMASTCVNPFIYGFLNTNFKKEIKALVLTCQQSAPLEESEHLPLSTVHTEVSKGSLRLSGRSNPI

Compound [3H]CC([3H])C(=O)NCCCC(=O)N[C@@H]1CC(=O)N[C@@H](CCCNC(=N)N)C(=O)N[C@@H](Cc2ccc(O)cc2)C(=O)N[C@H](C(=O)N[C@@H](CC(C)C)C(=O)N[C@@H](CCCNC(=N)N)C(=O)N[C@@H](Cc2ccc(O)cc2)C(N)=O)CCCN/C(N)=N/C(=O)NCCCCNC1=O (stereo partly drawn) has a Kd [1] of 0.012 nM, a Kd [2] of 0.11 nM and a Kd [3] of 0.002 nM. For the same compound, the Kd [4] was 0.014 nM, the Kd [5] was 0.09 nM and the Kd [6] was 0.11 nM. The Kd [7] was 0.86 nM.
For [3H]CC([3H])C(=O)N[C@H](CCCC[C@@H](N)C(=O)N[C@@H](Cc1ccc(O)cc1)C(=O)N[C@@H](CCCNC(=N)N)C(=O)N[C@@H](CC(C)C)C(=O)N[C@@H](CCCNC(=N)N)C(=O)N[C@@H](Cc1ccc(O)cc1)C(N)=O)C(=O)N[C@@H](Cc1ccc(O)cc1)C(=O)N[C@@H](CCCNC(=N)N)C(=O)N[C@@H](CC(C)C)C(=O)N[C@@H](CCCNC(=N)N)C(=O)N[C@@H](Cc1ccc(O)cc1)C(N)=O (stereo partly drawn), the Kd [8] was 0.67 nM, the Kd [9] was 9.8 nM and the Ki ([10]; read-out: Ki) was 0.39 nM. The Ki ([11]; read-out: Ki) was 11 nM, the Ki ([11]; read-out: pKi (converted)) was 10.2 nM and the Ki [12] was 0.87 nM.
With CCC(=O)NCCCC(=O)N[C@@H]1CC(=O)N[C@@H](CCCNC(=N)N)C(=O)N[C@@H](Cc2ccc(O)cc2)C(=O)N[C@H](C(=O)N[C@@H](CC(C)C)C(=O)N[C@@H](CCCNC(=N)N)C(=O)N[C@@H](Cc2ccc(O)cc2)C(N)=O)CCCN/C(N)=N/C(=O)NCCCCNC1=O.O=C(O)C(F)(F)F.O=C(O)C(F)(F)F.O=C(O)C(F)(F)F the Stability [13] was “Stable”, the Ki ([14]; read-out: pKi (converted)) was over 1000 nM and the Ki ([14]; sk-n-mc, read-out: Ki) was over 1000 nM. The Ki ([15]; read-out: Ki) was over 3000 nM, the Ki ([15]; read-out: pKi (converted)) was over 3160 nM and the Ki ([16]; read-out: Ki) was 0.036 nM. For the same compound, the Ki ([16]; read-out: pKi (converted)) was 0.0316 nM, the Ki ([17]; hec-1b cell line, read-out: Ki) was over 1000 nM and the Ki ([17]; read-out: pKi (converted)) was over 1000 nM. It also gave a Ratio pKi (Homo sapiens [18]) of over 27000, a Ratio pKi (Homo sapiens [18]; tested as the 3H-labelled form) of over 27000 and a Ratio pKi (Homo sapiens [19]) of over 27000. The Ratio pKi (Homo sapiens [19]; tested as the 3H-labelled form) was over 27000, the Ratio pKi (Homo sapiens [20]) was over 27000 and the Ratio pKi (Homo sapiens [20]; tested as the 3H-labelled form) was over 27000. For the same compound, the EC50 ([21]; read-out: EC50) was 5.4 nM, the EC50 ([21]; read-out: pEC50 (converted)) was 5.13 nM and the EC50 [22] was 5.1 nM. The EC50 ([23]; read-out: EC50) was 0.17 nM, the EC50 ([23]; read-out: pEC50 (converted)) was 0.126 nM and the Emax [24] was 65%. The Emax [25] was 60%, the Emax [26] was 83% and the K [27] was 0.071 min⁻¹. It also gave a K [28] of 0.009 min⁻¹, a K [29] of 6.83e+07 M⁻¹ s⁻¹ and a K [30] of 0.54 min⁻¹. It also gave a K [31] of 0.12 min⁻¹, a K [32] of 1.4e+08 M⁻¹ s⁻¹ and a K [33] of 0.059 min⁻¹. The K [34] was 1.17e+07 M⁻¹ s⁻¹, the Ki ([10]; read-out: Ki) was 0.01 nM and the Ki ([10]; read-out: pKi (converted)) was 0.00891 nM. For the same compound, the Ki ([11]; read-out: Ki) was 0.088 nM and the Ki ([11]; read-out: pKi (converted)) was 0.0832 nM.

From ChEMBL document CHEMBL5370598, “[3H]UR-JG102-A Radiolabeled Cyclic Peptide with High Affinity and Excellent Selectivity for the Neuropeptide Y Y4 Receptor” (J Med Chem, 2023)
